In the oligonucleotide strings, read from the 5' end, every base follows the letter of its sugar. An asterisk marks phosphorothioate; unmarked linkages are phosphodiester. Other units and linkages are bracketed, terminal groups are in braces. A string of capitals states the bases alone. e = 2'-O-(2-methoxyethyl) (MOE); [5mC] = 5-methylcytosine; d = 2'-deoxy (DNA)
Test system: human Factor XI mRNA
Test: Antisense inhibition in HepG2 cells by microwalk gapmers, 75 nM, lipofectin (Example 3)
Type: cell-based
Conditions: for % inhibition of human Factor XI mRNA levels: HepG2 cells, 75 nM
Experimental: These gapmers were designed by creating gapmers shifted slightly upstream and downstream (i.e. “microwalk”) of the original gapmers from Table 3. Gapmers were also created with various motifs, e.g. 5-10-5 MOE, 3-14-3 MOE, and 2-13-5 MOE. These gapmers were tested in vitro. Cultured HepG2 cells at a density of 10,000 cells per well were transfected using lipofectin reagent with 75 nM antisense oligonucleotide. After a treatment period of approximately 24 hours, RNA was isolated from the cells and Factor XI mRNA levels were measured by quantitative real-time PCR. Factor XI mRNA levels were adjusted according to total RNA content, as measured by RIBOGREEN®. Results are presented as percent inhibition of Factor XI, relative to untreated control cells.
The chimeric antisense oligonucleotides in Table 4 were designed as 5-10-5 MOE, 3-14-3 MOE, and 2-13-5 MOE gapmers. The first listed gapmers in Table 4 are the original gapmers (see Table 3) from which the remaining gapmers were designed via microwalk and are designated by an asterisk. The 5-10-5 gapmers are 20 nucleotides in length, wherein the central gap segment is comprised of 10 2′-deoxynucleotides and is flanked on both sides (in the 5′ and 3′ directions) by wings comprising 5 nucleotides each. The 3-14-3 gapmers are 20 nucleotides in length, wherein the central gap segment is comprised of 14 2′-deoxynucleotides and is flanked on both sides (in the 5′ and 3′ directions) by wings comprising 3 nucleotides each. The 2-13-5 gapmers are 20 nucleotides in length, wherein the central gap segment is comprised of 13 2′-deoxynucleotides. The central gap is flanked on the 5′ end with a wing comprising 2 nucleotides and on the 3′ end with a wing comprising 5 nucleotides. For each of the motifs (5-10-5, 3-14-3, and 2-13-5), each nucleotide in the 5′ wing segment and each nucleotide in the 3′ wing segment has a 2′-MOE modification. The internucleoside linkages throughout each gapmer are phosphorothioate (P═S) linkages. All cytidine residues throughout each gapmer are 5-methylcytidines. “Target start site” indicates the 5′-most nucleotide to which the gapmer is targeted. “Target stop site” indicates the 3′-most nucleotide to which the gapmer is targeted. Each gapmer listed in Table 4 is targeted to SEQ ID NO: 1 (GENBANK Accession No. NM_000128.3).

[1] = oligonucleotides targeted to nucleobases 1062 to 1091 of SEQ ID NO: 1
[2] = oligonucleotides targeted to nucleobases 738 to 762 of SEQ ID NO: 1
[3] = oligonucleotides targeted to nucleobases 1018 to 1042 of SEQ ID NO: 1

416844 (antisense e[5mC]*eT*eT*eT*eG*dA*dG*dA*dT*dT*d[5mC]*dT*dT*dT*dG*eG*eG*e[5mC]*e[5mC]*eA) [compound 416844]
% inhibition of human Factor XI mRNA levels [1]: 90%

416845 (antisense eT*e[5mC]*eT*eT*eT*dG*dA*dG*dA*dT*dT*d[5mC]*dT*dT*dT*eG*eG*eG*e[5mC]*e[5mC]) [compound 416845]
% inhibition of human Factor XI mRNA levels [1]: 86%

416846 (antisense eT*eT*e[5mC]*eT*eT*dT*dG*dA*dG*dA*dT*dT*d[5mC]*dT*dT*eT*eG*eG*eG*e[5mC]) [compound 416846]
% inhibition of human Factor XI mRNA levels [1]: 72%

416847 (antisense eT*eT*eT*e[5mC]*eT*dT*dT*dG*dA*dG*dA*dT*dT*d[5mC]*dT*eT*eT*eG*eG*eG) [compound 416847]
% inhibition of human Factor XI mRNA levels [1]: 50%

416894 (antisense eA*eT*eG*d[5mC]*d[5mC]*d[5mC]*dT*dT*d[5mC]*dA*dT*dG*dT*d[5mC]*dT*dA*dG*eG*eT*e[5mC]) [compound 416894]
% inhibition (HepG2, 75 nM, approximately 24 hours, nucleobases 656 to 704 of SEQ ID NO: 1): 84%

416898 (antisense e[5mC]*e[5mC]*eG*dT*dG*d[5mC]*dA*dT*d[5mC]*dT*dT*dT*d[5mC]*dT*dT*dG*dG*e[5mC]*eA*eT) [compound 416898]
% inhibition of human Factor XI mRNA levels [2]: 88%

416899 (antisense eT*e[5mC]*e[5mC]*dG*dT*dG*d[5mC]*dA*dT*d[5mC]*dT*dT*dT*d[5mC]*dT*dT*dG*eG*e[5mC]*eA) [compound 416899]
% inhibition of human Factor XI mRNA levels [2]: 86%

416900 (antisense eA*eT*e[5mC]*d[5mC]*dG*dT*dG*d[5mC]*dA*dT*d[5mC]*dT*dT*dT*d[5mC]*dT*dT*eG*eG*e[5mC]) [compound 416900]
% inhibition of human Factor XI mRNA levels [2]: 90%

416901 (antisense e[5mC]*eA*eT*d[5mC]*d[5mC]*dG*dT*dG*d[5mC]*dA*dT*d[5mC]*dT*dT*dT*d[5mC]*dT*eT*eG*eG) [compound 416901]
% inhibition of human Factor XI mRNA levels [2]: 65%

416902 (antisense eT*e[5mC]*eA*dT*d[5mC]*d[5mC]*dG*dT*dG*d[5mC]*dA*dT*d[5mC]*dT*dT*dT*d[5mC]*eT*eT*eG) [compound 416902]
% inhibition of human Factor XI mRNA levels [2]: 46%

416903 (antisense eG*eT*e[5mC]*dA*dT*d[5mC]*d[5mC]*dG*dT*dG*d[5mC]*dA*dT*d[5mC]*dT*dT*dT*e[5mC]*eT*eT) [compound 416903]
% inhibition of human Factor XI mRNA levels [2]: 88%

416904 (antisense e[5mC]*e[5mC]*eG*dG*dG*dA*dT*dG*dA*dT*dG*dA*dG*dT*dG*d[5mC]*dA*eG*eA*eT) [compound 416904]
% inhibition of human Factor XI mRNA levels [3]: 90%

416905 (antisense eA*e[5mC]*e[5mC]*dG*dG*dG*dA*dT*dG*dA*dT*dG*dA*dG*dT*dG*d[5mC]*eA*eG*eA) [compound 416905]
% inhibition of human Factor XI mRNA levels [3]: 85%

416906 (antisense eA*eA*e[5mC]*d[5mC]*dG*dG*dG*dA*dT*dG*dA*dT*dG*dA*dG*dT*dG*e[5mC]*eA*eG) [compound 416906]
% inhibition of human Factor XI mRNA levels [3]: 88%

416907 (antisense e[5mC]*eA*eA*d[5mC]*d[5mC]*dG*dG*dG*dA*dT*dG*dA*dT*dG*dA*dG*dT*eG*e[5mC]*eA) [compound 416907]
% inhibition of human Factor XI mRNA levels [3]: 90%

416909 (antisense eA*eT*eT*d[5mC]*dT*dT*dT*dG*dG*dG*d[5mC]*d[5mC]*dA*dT*dT*d[5mC]*d[5mC]*eT*eG*eG) [compound 416909]
% inhibition of human Factor XI mRNA levels [1]: 78%

416910 (antisense eG*eA*eT*dT*d[5mC]*dT*dT*dT*dG*dG*dG*d[5mC]*d[5mC]*dA*dT*dT*d[5mC]*e[5mC]*eT*eG) [compound 416910]
% inhibition of human Factor XI mRNA levels [1]: 90%

416911 (antisense eA*eG*eA*dT*dT*d[5mC]*dT*dT*dT*dG*dG*dG*d[5mC]*d[5mC]*dA*dT*dT*e[5mC]*e[5mC]*eT) [compound 416911]
% inhibition of human Factor XI mRNA levels [1]: 90%

416912 (antisense eG*eA*eG*dA*dT*dT*d[5mC]*dT*dT*dT*dG*dG*dG*d[5mC]*d[5mC]*dA*dT*eT*e[5mC]*e[5mC]) [compound 416912]
% inhibition of human Factor XI mRNA levels [1]: 92%

Reference: US20120083522A1, “MODULATION OF INFLAMMATORY RESPONSES BY FACTOR XI” (Isis Pharmaceuitcals, inc., priority 2009, published 2012)
